The values that follow come from article PMC11858516, “Promiscuity in Polyphenol–Protein Interactions—Monitoring Protein Conformational Change upon Polyphenol–Protein Binding by Nano-Differential Fluorimetry (Nano-DSF)” (Molecules, 2025).

What all share (type): binding
Test [1] has as its target T1, bovine serum albumin (BSA) (Bos taurus, UniProt P02769).
T1 construct: gene ALB
Briefly: nano-DSF F350/F330 titration, […] fit. The settings on record: read-out: Ka [M^-1] (converted). (In general: Differential scanning fluorimetry follows unfolding on heating by fluorescence.)

Test [2] has as its target T2, Casein.
T2 construct: gene CSN1S1
Kind of test: nano-DSF F350/F330 titration, […] fit. Conditions: 37 °C, phosphate buffer pH 6.8, 1:1 stoichiometry assumed.

Test [3] concerns the target T3, Ovalbumin (OVA) (Gallus gallus, UniProt P01012).
T3 construct: gene SERPINB14
T3 sequence (P01012 2-386): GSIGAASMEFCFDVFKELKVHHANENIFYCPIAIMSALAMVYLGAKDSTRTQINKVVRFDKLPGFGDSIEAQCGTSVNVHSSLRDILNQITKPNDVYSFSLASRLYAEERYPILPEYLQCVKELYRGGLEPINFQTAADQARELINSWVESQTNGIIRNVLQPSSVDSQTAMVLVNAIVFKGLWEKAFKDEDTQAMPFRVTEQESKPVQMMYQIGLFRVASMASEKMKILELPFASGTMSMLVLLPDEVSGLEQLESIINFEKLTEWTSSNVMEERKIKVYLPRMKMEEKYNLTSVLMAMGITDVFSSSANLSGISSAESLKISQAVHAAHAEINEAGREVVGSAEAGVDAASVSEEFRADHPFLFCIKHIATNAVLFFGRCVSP
Briefly: nano-DSF F350/F330 ratio. Conditions: 1000 µM; phosphate buffer pH 6.8; 5 µM protein. The source says: nano-DSF F350/F330 ratio on Ovalbumin (OVA)

In test [4] the target is T1, bovine serum albumin (BSA). Kind of test: nano-DSF F350/F330 ratio. The settings on record: 1000 µM; phosphate buffer pH 6.8; 5 µM protein. An excerpt:
nano-DSF F350/F330 ratio on bovine serum albumin (BSA)

T1 sequence (P02769 25-607): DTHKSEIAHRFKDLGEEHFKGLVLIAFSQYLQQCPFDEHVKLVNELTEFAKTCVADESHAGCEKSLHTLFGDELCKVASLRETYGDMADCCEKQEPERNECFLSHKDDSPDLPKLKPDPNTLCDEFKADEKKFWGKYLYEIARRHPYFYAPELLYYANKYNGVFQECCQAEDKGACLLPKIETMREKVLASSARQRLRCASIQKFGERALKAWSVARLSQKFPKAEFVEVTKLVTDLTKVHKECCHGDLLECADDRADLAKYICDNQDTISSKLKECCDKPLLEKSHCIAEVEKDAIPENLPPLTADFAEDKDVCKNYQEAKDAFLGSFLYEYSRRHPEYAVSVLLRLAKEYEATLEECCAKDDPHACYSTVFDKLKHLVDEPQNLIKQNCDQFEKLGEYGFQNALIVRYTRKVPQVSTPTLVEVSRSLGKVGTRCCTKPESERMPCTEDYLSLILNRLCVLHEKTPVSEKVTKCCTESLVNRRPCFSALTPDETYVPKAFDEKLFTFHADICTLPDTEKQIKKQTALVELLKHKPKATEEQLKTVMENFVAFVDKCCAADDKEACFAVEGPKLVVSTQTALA

For `O=C(/C=C/c1ccc(O)c(O)c1)O[C@H]1[C@H](O)C[C@](O)(C(=O)O)C[C@H]1OC(=O)/C=C/c1ccc(O)c(O)c1` [3,4-diCQA], in test [1], the Kd was 18 µM. In addition, the “Ka [M^-1]” value in test [2] is 41 271.

Take `O=C(/C=C/c1ccc(O)c(O)c1)O[C@@H]1C[C@](O)(C(=O)O)C[C@@H](O)[C@H]1O` [5-CQA]: in test [3], the F350/F330 fluorescence ratio came to 1.02. Further, in test [2], the “Ka [M^-1]” value is 21 450.

As to `O=C(O[C@@H]1Cc2c(O)cc(O)cc2O[C@@H]1c1cc(O)c(O)c(O)c1)c1cc(O)c(O)c(O)c1` [EGCG], the figures for the F350/F330 fluorescence ratio in test [3] and in test [4] were 1.25 and 1.57, respectively.

Consider `Oc1cc(O)c2c(c1)O[C@H](c1ccc(O)c(O)c1)[C@H](O)C2` [Epicatechin], for which the “Ka” value in test [2] (µM column is the reciprocal of Ka, the M^-1 cell is misprinted (7 1616)) stood at 139.6 µM.

`O=C(OC[C@H]1O[C@H](OC(=O)c2cc(O)c(O)c(O)c2)[C@H](OC(=O)c2cc(O)c(O)c(O)c2)[C@@H](OC(=O)c2cc(O)c(O)c(O)c2)[C@@H]1OC(=O)c1cc(O)c(O)c(O)c1)c1cc(O)c(O)c(O)c1` [α-PGG]: the Kd in test [1] was 89.3 µM.

For `O=C(OC[C@H]1O[C@@H](OC(=O)c2cc(O)c(O)c(O)c2)[C@H](OC(=O)c2cc(O)c(O)c(O)c2)[C@@H](OC(=O)c2cc(O)c(O)c(O)c2)[C@@H]1OC(=O)c1cc(O)c(O)c(O)c1)c1cc(O)c(O)c(O)c1` [β-PGG], the Kd in test [1] was 118 µM.
